According to ChEMBL document CHEMBL2203132, “Synthesis and antibiofilm activity of marine natural product-based 4-thiazolidinones derivatives” (2012):
≈ marks a conversion by molar mass, not a printed value.

Assays:
Assay type in all cases: functional
Enterococcus faecalis [1] = experiment: Antibiofilm activity against Enterococcus faecalis ATCC 29212 biofilms incubated at 37 degC for 16 hrs; details: ATCC 29212, 16 h
[2] = tested on: Staphylococcus epidermidis; experiment: Antibiofilm activity against Staphylococcus epidermidis ATCC 12228 biofilms incubated at 37 degC for 16 hrs; details: ATCC 12228, 16 h
Enterococcus faecalis [3] = experiment: Antimicrobial activity against Enterococcus faecalis ATCC 29212 by broth microdilution method
[4] = tested on: Staphylococcus epidermidis; experiment: Antimicrobial activity against Staphylococcus epidermidis ATCC 12228 by broth microdilution method
[5] = tested on: Staphylococcus epidermidis; experiment: Antimicrobial activity against Staphylococcus epidermidis ATCC 12228 using sub-cultures from MIC method grown subsequently on Mueller-Hinton agar plates at 37 degC for 24 hrs; details: ATCC 12228, 24 h
Staphylococcus aureus [6] = experiment: Antibiofilm activity against Staphylococcus aureus ATCC 29213 biofilms incubated at 37 degC for 16 hrs; details: ATCC 29213, 16 h
Staphylococcus aureus [7] = experiment: Bactericidal activity against Staphylococcus aureus ATCC 29213 using sub-cultures from MIC method grown subsequently on Mueller-Hinton agar plates at 37 degC for 24 hrs; details: ATCC 29213, 24 h
Staphylococcus aureus [8] = experiment: Antimicrobial activity against Staphylococcus aureus ATCC 29213 by broth microdilution method
Enterococcus faecalis [9] = experiment: Antimicrobial activity against Enterococcus faecalis ATCC 29212 using sub-cultures from MIC method grown subsequently on Mueller-Hinton agar plates at 37 degC for 24 hrs; details: ATCC 29212, 24 h
Staphylococcus aureus [10] = experiment: Potency index, ratio of MIC for vancomycin to MIC for compound against Staphylococcus aureus ATCC 29213 biofilms incubated at 37 degC for 16 hrs

Row | SMILES | MIC (Enterococcus faecalis [1]) [mg/L] | MIC [2] [mg/L] | MIC (Enterococcus faecalis [3]) [mg/L] | MIC [4] [mg/L] | MBC [5] [mg/L] | MIC (Staphylococcus aureus [6]) [mg/L] | MBC (Staphylococcus aureus [7]) [mg/L] | MIC (Staphylococcus aureus [8]) [mg/L] | MBC (Enterococcus faecalis [9]) [mg/L] | Ratio (Staphylococcus aureus [10])
1 | Cn1c(C(=O)NN2C(=O)CSC2c2ccccc2)cc(Br)c1Br (stereo not given) | 12.5 (≈ 27.2 µM) | 12.5 (≈ 27.2 µM) | 12.5 (≈ 27.2 µM) | 3.12 (≈ 6.81 µM) | 6.25 (≈ 13.6 µM) | 3.12 (≈ 6.81 µM) | 6.25 (≈ 13.6 µM) | 1.56 (≈ 3.4 µM) | 25 (≈ 54.4 µM) | –
2 | COc1ccc(C2SCC(=O)N2NC(=O)c2cc(Br)c(Br)n2C)cc1 (stereo not given) | 6.25 (≈ 12.8 µM) | 3.12 (≈ 6.39 µM) | 6.25 (≈ 12.8 µM) | 1.56 (≈ 3.19 µM) | 3.12 (≈ 6.39 µM) | 0.78 (≈ 1.59 µM) | 6.25 (≈ 12.8 µM) | 0.78 (≈ 1.59 µM) | 25 (≈ 51.1 µM) | 3
3 | Cn1c(C(=O)NN2C(=O)CSC2c2ccc([N+](=O)[O-])cc2)cc(Br)c1Br (stereo not given) | 12.5 (≈ 24.8 µM) | 3.12 (≈ 6.2 µM) | 12.5 (≈ 24.8 µM) | 1.56 (≈ 3.09 µM) | 6.25 (≈ 12.4 µM) | 0.78 (≈ 1.55 µM) | 6.25 (≈ 12.4 µM) | 0.78 (≈ 1.55 µM) | 25 (≈ 49.6 µM) | 3
4 | COc1ccc(C2SCC(=O)N2NC(=O)c2cc(Br)c(Br)n2C)c(O)c1 (stereo not given) | 12.5 (≈ 24.7 µM) | 3.12 (≈ 6.19 µM) | 12.5 (≈ 24.7 µM) | 1.56 (≈ 3.09 µM) | 3.12 (≈ 6.19 µM) | 1.56 (≈ 3.09 µM) | 6.25 (≈ 12.4 µM) | 0.78 (≈ 1.54 µM) | 25 (≈ 49.5 µM) | 2
5 | COc1ccc(C2SCC(=O)N2NC(=O)c2cc(Br)c(Br)n2C)cc1O (stereo not given) | 12.5 (≈ 24.7 µM) | 3.12 (≈ 6.19 µM) | 3.12 (≈ 6.19 µM) | 1.56 (≈ 3.09 µM) | 6.25 (≈ 12.4 µM) | 3.12 (≈ 6.19 µM) | 6.25 (≈ 12.4 µM) | 1.56 (≈ 3.09 µM) | 12.5 (≈ 24.7 µM) | –
6 | Cn1c(C(=O)NN2C(=O)CSC2c2cc(O)ccc2O)cc(Br)c1Br (stereo not given) | 12.5 (≈ 25.4 µM) | 3.12 (≈ 6.36 µM) | 6.25 (≈ 12.7 µM) | 1.56 (≈ 3.18 µM) | 3.12 (≈ 6.36 µM) | 1.56 (≈ 3.18 µM) | 3.12 (≈ 6.36 µM) | 0.78 (≈ 1.59 µM) | 12.5 (≈ 25.4 µM) | 2
7 | Cn1c(C(=O)NN2C(=O)CSC2c2ccc(F)cc2)cc(Br)c1Br (stereo not given) | 12.5 (≈ 26.2 µM) | 3.12 (≈ 6.55 µM) | 3.12 (≈ 6.54 µM) | 1.56 (≈ 3.27 µM) | 3.12 (≈ 6.55 µM) | 1.56 (≈ 3.27 µM) | 3.12 (≈ 6.55 µM) | 0.78 (≈ 1.63 µM) | 12.5 (≈ 26.2 µM) | 2
8 | Cn1c(C(=O)NN2C(=O)CSC2c2ccc(Cl)cc2)cc(Br)c1Br (stereo not given) | 12.5 (≈ 25.3 µM) | 3.12 (≈ 6.33 µM) | 12.5 (≈ 25.3 µM) | 1.56 (≈ 3.16 µM) | 3.12 (≈ 6.33 µM) | 1.56 (≈ 3.16 µM) | 3.12 (≈ 6.33 µM) | 0.78 (≈ 1.58 µM) | 25 (≈ 50.6 µM) | 2
9 | Cn1c(C(=O)NN2C(=O)CSC2C/C=C/c2ccccc2)cc(Br)c1Br (stereo not given) | 6.25 (≈ 12.5 µM) | 6.25 (≈ 12.5 µM) | 25 (≈ 50.1 µM) | 25 (≈ 50.1 µM) | 12.5 (≈ 25 µM) | 6.12 (≈ 12.3 µM) | 12.5 (≈ 25 µM) | 6.25 (≈ 12.5 µM) | 12.5 (≈ 25 µM) | –
10 | Cn1c(C(=O)NN2C(=O)CCSC2c2ccccc2)cc(Br)c1Br (stereo not given) | 25 (≈ 52.8 µM) | 12.5 (≈ 26.4 µM) | 50 (≈ 106 µM) | 6.25 (≈ 13.2 µM) | 12.5 (≈ 26.4 µM) | 12.5 (≈ 26.4 µM) | 6.25 (≈ 13.2 µM) | 12.5 (≈ 26.4 µM) | 100 (≈ 211 µM) | –
11 | COc1ccc(C2SCCC(=O)N2NC(=O)c2cc(Br)c(Br)n2C)cc1 (stereo not given) | 25 (≈ 49.7 µM) | 12.5 (≈ 24.8 µM) | 50 (≈ 99.4 µM) | 6.25 (≈ 12.4 µM) | 12.5 (≈ 24.8 µM) | 6.25 (≈ 12.4 µM) | 6.25 (≈ 12.4 µM) | 3.12 (≈ 6.21 µM) | 100 (≈ 199 µM) | –
12 | Cn1c(C(=O)NN2C(=O)CCSC2c2ccc([N+](=O)[O-])cc2)cc(Br)c1Br (stereo not given) | 25 (≈ 48.2 µM) | 12.5 (≈ 24.1 µM) | 50 (≈ 96.5 µM) | 6.25 (≈ 12.1 µM) | 12.5 (≈ 24.1 µM) | 6.25 (≈ 12.1 µM) | 6.25 (≈ 12.1 µM) | 3.12 (≈ 6.03 µM) | 50 (≈ 96.5 µM) | –
13 | COc1ccc(C2SCCC(=O)N2NC(=O)c2cc(Br)c(Br)n2C)c(O)c1 (stereo not given) | 25 (≈ 48.1 µM) | 12.5 (≈ 24.1 µM) | 25 (≈ 48.1 µM) | 6.25 (≈ 12 µM) | 12.5 (≈ 24.1 µM) | 6.25 (≈ 12 µM) | 6.25 (≈ 12 µM) | 3.12 (≈ 6.02 µM) | 50 (≈ 96.3 µM) | –
14 | COc1ccc(C2SCCC(=O)N2NC(=O)c2cc(Br)c(Br)n2C)cc1O (stereo not given) | 25 (≈ 48.1 µM) | 12.5 (≈ 24.1 µM) | 25 (≈ 48.1 µM) | 6.25 (≈ 12 µM) | 12.5 (≈ 24.1 µM) | 6.25 (≈ 12 µM) | 6.25 (≈ 12 µM) | 3.12 (≈ 6.02 µM) | 50 (≈ 96.3 µM) | –
15 | Cn1c(C(=O)NN2C(=O)CCSC2c2cc(O)ccc2O)cc(Br)c1Br (stereo not given) | 25 (≈ 49.5 µM) | 12.5 (≈ 24.7 µM) | 25 (≈ 49.5 µM) | 6.25 (≈ 12.4 µM) | 12.5 (≈ 24.7 µM) | 6.25 (≈ 12.4 µM) | 12.5 (≈ 24.7 µM) | 3.12 (≈ 6.19 µM) | 50 (≈ 99 µM) | –
16 | Cn1c(C(=O)NN2C(=O)CCSC2c2ccc(F)cc2)cc(Br)c1Br (stereo not given) | 25 (≈ 50.9 µM) | 12.5 (≈ 25.4 µM) | 25 (≈ 50.9 µM) | 6.25 (≈ 12.7 µM) | 12.5 (≈ 25.4 µM) | 6.25 (≈ 12.7 µM) | 12.5 (≈ 25.4 µM) | 3.12 (≈ 6.36 µM) | 50 (≈ 102 µM) | –
17 | Cn1c(C(=O)NN2C(=O)CCSC2c2ccc(Cl)cc2)cc(Br)c1Br (stereo not given) | 25 (≈ 49.2 µM) | 12.5 (≈ 24.6 µM) | 25 (≈ 49.2 µM) | 6.25 (≈ 12.3 µM) | 12.5 (≈ 24.6 µM) | 6.25 (≈ 12.3 µM) | 12.5 (≈ 24.6 µM) | 3.12 (≈ 6.16 µM) | 50 (≈ 98.5 µM) | –
18 | Cn1c(C(=O)NN2C(=O)CCSC2C/C=C/c2ccccc2)cc(Br)c1Br (stereo not given) | 50 (≈ 97.4 µM) | 25 (≈ 48.7 µM) | 25 (≈ 48.7 µM) | 6.25 (≈ 12.2 µM) | 12.5 (≈ 24.4 µM) | 25 (≈ 48.7 µM) | 50 (≈ 97.4 µM) | 12.5 (≈ 24.4 µM) | 50 (≈ 97.4 µM) | –
19 | CN[C@H](CC(C)C)C(=O)N[C@H]1C(=O)N[C@@H](CC(N)=O)C(=O)N[C@H]2C(=O)N[C@H]3C(=O)N[C@H](C(=O)N[C@H](C(=O)O)c4cc(O)cc(O)c4-c4cc3ccc4O)[C@H](O)c3ccc(c(Cl)c3)Oc3cc2cc(c3O[C@@H]2O[C@H](CO)[C@@H](O)[C@H](O)[C@H]2O[C@H]2C[C@](C)(N)[C@H](O)[C@H](C)O2)Oc2ccc(cc2Cl)[C@H]1O [VANCOMYCIN] | 3.12 (≈ 2.16 µM) | 3.12 (≈ 2.16 µM) | 3.12 (≈ 2.16 µM) | – | 3.12 (≈ 2.16 µM) | 3.12 (≈ 2.16 µM) | 3.12 (≈ 2.16 µM) | – | 6.25 (≈ 4.31 µM) | –
